# Laboratory results published in patent US9198909B1, “Materials and methods for inhibiting mamalian S-nitrosoglutathione reductase” (Indiana University Research and Technology Corporation, priority 2007, dated 2015).
# Assays:
# RAW 264.7 cells [1] = test: cGMP accumulation in RAW 264.7 cells; assay type: cell-based, rat; conditions: 50 μM GSNO, 10 minutes
# Method: cGMP plays key roles in vascular biology. To test whether inhibition of GSNOR increases cGMP production, RAW 264.7 cells were incubated with 50 μM GSNO±, both with and without compound 8, one of the subject GSNOR inhibitors of this invention. Next the amount of cGMP accumulation after 10 minutes was measured. Referring now to FIG. 6, GSNO activates soluble Guanylate Cyclase as previously described (Mayer et al J Biol Chem, Vol. 273, Issue 6, 3264-3270, Feb. 6, 1998). Compound 8 (GSNORi in the figure) potentiates the effect of GSNO by 2.5 fold.
# Referring now to FIG. 6, RAW 264.7 cells were incubated with 50 μM GSNO±compound 8 the subject GSNOR inhibitor of this invention and then measured the amount of cGMP accumulation after 10 minutes. As shown in the figure GSNO activates soluble Guanylate Cyclase as previously described (Mayer et al J Biol Chem, Vol. 273, Issue 6, 3264-3270, Feb. 6, 1998). One mechanism by which compound 8 exerts its biochemical effects is due to its inhibition of GSNOR, which then potentiates the effects of GSNO on cGMP production resulting in higher cGMP levels.
# GSNOR•NADH complex = target: T1, GSNOR•NADH complex (Homo sapiens, UniProt P11766); test: Fluorescence equilibrium binding to GSNOR•NADH complex; conditions: 1.7 μM NADH, 2 μM GSNOR, 50 μM compound 8
# T1 construct: made in house; host or cells: E. coli
# T1 sequence (P11766 2-374 limits assumed, one chain of several): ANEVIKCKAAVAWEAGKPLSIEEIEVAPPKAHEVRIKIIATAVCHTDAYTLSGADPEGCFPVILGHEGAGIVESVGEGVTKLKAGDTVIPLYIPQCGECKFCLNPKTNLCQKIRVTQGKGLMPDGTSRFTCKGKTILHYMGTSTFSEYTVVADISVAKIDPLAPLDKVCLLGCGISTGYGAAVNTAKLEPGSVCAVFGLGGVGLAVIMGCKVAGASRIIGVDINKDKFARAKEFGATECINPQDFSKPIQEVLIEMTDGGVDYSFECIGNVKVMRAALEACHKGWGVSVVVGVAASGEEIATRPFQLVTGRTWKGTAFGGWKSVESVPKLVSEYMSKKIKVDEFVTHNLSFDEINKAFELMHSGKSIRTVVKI
# Method: Referring now to FIG. 2, (A) Changes in the fluorescence of NADH (curve a) upon sequential addition of GSNOR (curve b) and compound 8 (curve c). To a solution of 1.7 μM NADH were added 2 μM GSNOR and 50 μM compound 8 in sequence and the fluorescence of the solution measured each time (λexc=350 nm; λemm=375-550 nm); (B) Changes in the fluorescence of NADH (curve a) upon sequential addition of GSNOR (curve b), 12-HDDA (curve c) and compound 8 (curve d). To a solution of 1.7 μM NADH were added 2 μM GSNOR, 810 μM 12-HDDA and 50 μM compound 8 in sequence and the fluorescence measured each time (λexc=350 nm; λemm=375-550 nm); (C) Binding of compound 8 to GSNOR•NADH complex. The change in fluorescence of a 1.7 μM NADH and 2 μM GSNOR mixture (λexc=350 nm; λemm=455 nm) with increasing concentrations of compound 8 was fitted to a single site binding model (equation 1; see materials and methods) using the Graphpad Prizm 4. All of the fluorescence studies were conducted at room temperature in 50 mM potassium phosphate pH 7.5.
# Referring now to Table 3, inhibition experiments were performed at 25° C. in 50 mM potassium phosphate (pH 7.5) including 0.1 mM EDTA. […] The dissociation constant was measured at 25° C. in 50 mM potassium phosphate pH 7.5. […]
# Fluorescence studies were conducted in 50 mM potassium phosphate pH 7.5, at room temperature using a Fluoromax-2 fluorescence spectrometer (Instruments S.A., Inc., Edison, N.J.). The equilibrium dissociation constant of GSNOR inhibitors was determined by measuring the changes in the fluorescence of GSNOR bound NADH (λexc=350 nm; λemm=455 nm) upon the addition of inhibitor. […] The decrease in fluorescence at 455 nm with each addition of inhibitor was plotted against the final concentration of inhibitor and the data were fitted to equation 1 using nonlinear regression to obtain the dissociation constant of the inhibitor for GSNOR-NADH complex,
# [formula] In equation 1, ΔF is the change in the fluorescence at 455 nm upon the addition of inhibitor. ΔFM is the maximum fluorescence change that was obtained from curve fitting. […]
# RAW 264.7 cells [2] = test: Nitroso species accumulation in RAW 264.7 cells (triiodide chemiluminescence); assay type: cell-based, rat
# Method: Referring now to FIG. 3, briefly, RAW 264.7 cells were incubated with 500 μM GSNO alone (γ) or in presence of 33 μM Compound 6 (◯) or 7 (Δ) or 8 (▪). At indicated times or at 4 hr (in case of B), the cells were lysed and the lysate was analyzed for protein and nitroso species concentration by Bradford and chemiluminescence assay, respectively. For details, see Materials and methods. Data represents mean±SE (n=3−12).
# RAW 264.7 cells were cultured in DMEM medium supplemented with 10% FBS, 200 U/ml of penicillin and 200 μg/mL of streptomycin. The cells were incubated at 37° C. in an atmosphere containing 5% CO2 and 95% air. For the experiments, 1-2×10^6 cells were plated in six-well plates a day before the experiment. On the day of the assay the medium was replaced with 3 ml of fresh medium and the cells were treated with compounds for a predetermined length of time. Following the incubation period, the cells were washed three times with PBS and scraped off the plate in 250 μl of lysis buffer (50 mM potassium phosphate pH 7.0 containing 50 mM NEM and 1 mM EDTA). Cells were lysed by sonication using a micro tip probe (three pulses of 30% duty cycle; 2 output control on a Fisher Sonicator). Cell debris was pelleted by centrifugation (10 min at 16,000 g) and the cell lysate was analyzed for protein concentration using the Bio-Rad dye-binding protein assay. The concentration of nitroso compounds in the cell lysate was determined using the triiodide based chemiluminescence method using a Sievers 280 nitric oxide analyzer. Briefly, cell lysates were treated with 15% v/v of a sulfanilamide solution (5% w/v in 0.2 M HCl) and kept at room temperature for 5 min to remove nitrite. The triodide mixture was prepared fresh every day as described earlier and kept at 60° C. in the reaction vessel. The concentration of nitroso species was derived from a standard curve generated using GSNO. For determining the amount of the small size nitroso compounds in the cell lysate, a 5 kDa-cutoff Amicon ultra filtration unit was used according to the supplier's instructions. The amount of s-nitrosothiols in the cell lysate was determined by treating initially passing the cell lysate through a microspin column and treating the eluate with 5 mM HgCl2 before determining the nitroso compound concentration using chemiluminescence. For some experiments the cells were pretreated with the compounds for 16 hours prior to the day of experiment.
smiles,measurement,setting,value
N#Cc1ccccc1CSc1nc2ccsc2c(=O)n1Cc1ccc(C(=O)O)cc1 [Compound 8],potentiation of the effect of GSNO on cGMP,RAW 264.7 cells [1],2.5 fold
same,effect on fluorescence of GSNOR bound NADH,GSNOR•NADH complex,decreased the fluorescence of NADH
same,effect on GSNOR•NADH•12-HDDA complex (displacement of 12-HDDA),GSNOR•NADH complex; 810 μM 12-HDDA,displaced 12-HDDA from the active site
same,"nitrosylation, fold higher than Compound 7","RAW 264.7 cells [2]; 33 μM initial concentration, 500 μM GSNO, 4 hr",3 fold
same,decrease in nitrosylated species relative to amounts at 4 hours,"RAW 264.7 cells [2]; exposure up to 24 hours, data not shown",80%
